# Test results published in patent US20150031641A1, “METHODS AND COMPOSITIONS FOR THE DIAGNOSIS, PROGNOSIS AND TREATMENT OF ACUTE MYELOID LEUKEMIA” (MEMORIAL SLOAN-KETTERING CANCER CENTER, priority 2012, published 2015).
# Test system: patients with AML
# Test: ECOG E1900 trial: overall survival after induction with high-dose vs standard-dose daunorubicin plus cytarabine, by genotype
# Format: in vivo, human
# Conditions: for outcome with dose-intensified induction therapy: univariate analysis
# Method: The present disclosure is based on mutational analysis of 18 genes in 398 patients with AML younger than 60 years of age randomized to receive induction therapy including high-dose or standard dose daunorubicin. Prognostic findings were further validated in an independent set of 104 patients.
# Mutational analysis was performed on diagnostic patient samples from the ECOG E1900 trial in the test (n=398) and validation (n=104) cohorts. The test cohort comprised of all E1900 patients for whom viably frozen cells were available for DNA extraction and mutational profiling. The validation cohort comprised of a second set of patients for whom samples were banked in Trizol, which was used to extract DNA for mutational studies.
# Clinical characteristics of the patients studied compared to the complete E1900 trial cohort are in Table 1. The median follow-up time of patients included for analysis was 47.4 months from induction randomization. Cytogenetic analysis, fluorescent in situ hybridization, and RT-PCR for recurrent cytogenetic lesions was performed as described initially by Slovak et al. and utilized previously with central review by the ECOG Cytogenetics Committee (see ref. 16 and 17).
# Survival time was measured from date of randomization to date of death for those who died and date of last follow-up for those who were alive at the time of analysis. Survival probabilities were estimated using the Kaplan-Meier method and compared across mutant and wild-type patients using the log-rank test. Multivariate analyses were conducted using the Cox model with forward selection. Proportional hazards assumption was checked by testing for a non-zero slope in a regression of the scaled Schoenfeld residuals on functions of time (Table 3).
# When necessary, such as the analyses performed in various subsets, results of the univariate analyses were used to select the variables to be included in the forward variable search. Final multivariate models informed the development of novel risk classification rules. When indicated, p-values were adjusted to control the family wise error rate (FWER) using the complete null distribution approximated by resampling obtained through PROC MULTTEST in SAS or the multtest library in R^19. These adjustements were performed to adjust for the probability of making one or more false discoveries given that multiple pairwise tests were being performed. The only exception is adjustment for tests regarding effect of mutations on response to induction dose where a step-down Holm procedure was used to correct for multiple testing. All analyses were performed using SAS 9.2 (www.sas.com) and R 2.12 (www.r-project.org).
# Mutual exclusivitity of pairs of mutations were evaluated by fourfold contingency tables and Fisher's exact test. The association between mutations and cytogenetic risk classification was tested using the chi-square test. Hierarchical clustering was performed using the Lance-Williams dissimilarity formula and complete linkage. Survival time was measured from date of randomization to date of death for those who died and date of last follow-up for those who were alive at the time of analysis. Survival probabilities were estimated using the Kaplan-Meier method and compared across mutant and wildtype patients using the log-rank test. Multivariate analyses were conducted using the Cox model. Proportional hazards assumption was checked by testing for a non-zero slope in a regression of the scaled Schoenfeld residuals on functions of time. […]
structure (smiles),measurement,setting,value
COc1cccc2c1C(=O)c1c(O)c3c(c(O)c1C2=O)C[C@@](O)(C(C)=O)C[C@@H]3O[C@H]1C[C@H](N)[C@H](O)[C@H](C)O1 [daunorubicin],outcome with dose-intensified induction therapy,AML patients with MLL translocations,improved outcome
same,outcome with dose-intensified induction therapy,AML patients with NPM1 mutations,improved outcome
same,survival with high-dose daunorubicin according to treatment arm,DNMT3A mutant patients,associated with improved survival
same,impact of DNMT3A mutational status on the outcome with dose-intensive chemotherapy,"patients receiving high-dose or standard-dose daunorubicin, FIG. 4B",significant impact
same,"overall survival, high-dose relative to standard dose daunorubicin","patients with DNMT3A or NPM1 mutations or MLL translocations, cytarabine plus 90 vs 45 mg/m^2 daunorubicin induction",improved survival
